Patent publication US12673954B2 (BRISTOL-MYERS SQUIBB COMPANY, priority 2021, dated 2026)
Where two headings read alike, the source gives them in different places.

Key:
[1] = test system: IRF pathway, THP1-Dual™ cells; test: STING reporter assay in THP1-Dual cells, IRF pathway (Lucia luciferase, QUANTI-Luc); assay type: cell-based, human; settings: THP1-Dual cells, 10% human plasma, 20 hours, Lucia luciferase, 100% activation = 100 μM cGAMP, read-out: IRF (EC50 μM)
Excerpt: (§1) THP1-Dual™ cells were derived from the human THP-1 monocyte cell line by stable integration of two inducible reporter constructs. To this end, THP1-Dual™ cells allow the simultaneous study of the NF-κB pathway, by monitoring the activity of SEAP, and the IRF pathway by assessing the activity of a secreted luciferase (Lucia). Both reporter proteins are readily measurable in the cell culture supernatant when using QUANTI-Blue™, a SEAP detection reagent, and QUANTI-Luc™, a luciferase detection reagent.
(§2) THP1-Dual™ cells induce the activation of NF-κB in response to STING agonists. They also trigger the IRF pathway upon stimulation with STING agonists, such as cGAMP. Here, the THP-1-Dual cells were used to assess STING specific binders for function on the cellular level.
(§3) Serial dilutions of compounds in DMSO were added to low volume 384 well plates at 100 nl/well using an ECHO acoustic dispenser (Labcyte, model 550) to achieve final starting concentration of 100 μM in cell suspension. […] One column of the plate was reserved for treatment with cGAMP at 100 μM for 100% activation calculation and one column for no treatment (DMSO only) for baseline activation. Plates were then incubated in 37° C. incubator at 5% CO2 for 20 hours.
(§4) Plates were read on the Envision (Perkin Elmer) at 620 nm wavelength (OD620). In the luciferase assay, 5 μl of Quantiluc (Invivogen, Rep-qlc2) is added to white 384 well plates seeded with THP1 cells and read at 5 minutes on the Envision (Perkin Elmer) using a luminescence protocol (RLU). 100% activation was determined by value (RLU) of THP-1 Dual STING cells stimulated with 100 μM cGAMP (Invivogen, cat #TLRL-NACGA23-5).

[2] = test system: NF-κB pathway, THP1-Dual™ cells; test: STING reporter assay in THP1-Dual cells, NF-κB pathway (SEAP, QUANTI-Blue); assay type: cell-based, human; settings: THP1-Dual cells, 10% human plasma, 20 hours, SEAP, 100% activation = 100 μM cGAMP, read-out: NFkB (EC50 μM)
Excerpt: as §1, §2, §3, §4

Row | SMILES | EC50 ([1]; Homo sapiens, THP1-Dual, 20 h) [µM] | EC50 ([2]; Homo sapiens, THP1-Dual, 20 h) [µM] | EC50 [1] [µM] | EC50 [2] [µM]
1 | COC(OC(=O)c1cc(C(F)(F)F)cc2cc(CNC(=O)c3cnn4cccnc34)oc12)C(F)(F)F (single isomer, unassigned) [EXAMPLE 351, 2,2,2-Trifluoro-1-methoxyethyl 2-((pyrazolo[1,5-a]pyrimidine-3-carboxamido)methyl)-5-(trifluoromethyl)benzofuran-7-carboxylate] | 1.9 | 2.4 | – | –
2 | COC(OC(=O)c1cc(C(F)(F)F)cc2cc(CNC(=O)c3cnn4cccnc34)oc12)C(F)(F)F (single isomer, unassigned) [EXAMPLE 352, 2,2,2-Trifluoro-1-methoxyethyl 2-((pyrazolo[1,5-a]pyrimidine-3-carboxamido)methyl)-5-(trifluoromethyl)benzofuran-7-carboxylate] | – | – | 1.9 | 3.4
3 | COc1ccn2ncc(C(=O)NCc3cc4cc(Cl)cc(C(=O)OC(C)C(F)(F)F)c4o3)c2n1 (single isomer, unassigned) [EXAMPLE 368, 1,1,1-Trifluoropropan-2-yl 5-chloro-2-((5-methoxypyrazolo[1,5-a]pyrimidine-3-carboxamido)methyl)benzofuran-7-carboxylate] | 11 | 11 | – | –
4 | COC(=O)c1cccc2cc(CN3Cc4cccnc4C3=O)oc12 [EXAMPLE 1, Methyl 2-((7-oxo-5,7-dihydro-6H-pyrrolo[3,4-b]pyridin-6-yl)methyl)benzofuran-7-carboxylate] | 96 | 98 | – | –
5 | COC(=O)c1cccc2cc(CN3Cc4c(F)cncc4C3=O)oc12 [EXAMPLE 3, Methyl 2-((7-fluoro-3-oxo-1,3-dihydro-2H-pyrrolo[3,4-c]pyridin-2-yl)methyl)benzofuran-7-carboxylate] | 51 | 92 | – | –
6 | COC(=O)c1cccc2cc(CN3Cc4ccnc(F)c4C3=O)oc12 [EXAMPLE 4, Methyl 2-((4-fluoro-3-oxo-1,3-dihydro-2H-pyrrolo[3,4-c]pyridin-2-yl)methyl)benzofuran-7-carboxylate] | 13 | 14 | – | –
7 | COC(=O)c1cccc2cc(CNC(=O)c3cnccn3)oc12 [EXAMPLE 8, Methyl 2-((pyrazine-2-carboxamido)methyl)benzofuran-7-carboxylate] | 21 | 18 | – | –
8 | COC(=O)c1cccc2cc(CNC(=O)c3cnn4cccnc34)oc12 [EXAMPLE 9, Methyl 2-((pyrazolo[1,5-a]pyrimidine-3-carboxamido)methyl) benzofuran-7-carboxylate] | – | – | 2.1 | 1.8
9 | COC(=O)c1cccc2cc(CNC(=O)c3cnn4ccc(C)nc34)oc12 [EXAMPLE 10, Methyl 2-((5-methylpyrazolo[1,5-a]pyrimidine-3-carboxamido)methyl) benzofuran-7-carboxylate] | – | – | 7.5 | 7.6
10 | COC(=O)c1cccc2cc(CNC(=O)c3cnn4cc(C)cnc34)oc12 [EXAMPLE 11, Methyl 2-((6-methylpyrazolo[1,5-a]pyrimidine-3-carboxamido)methyl) benzofuran-7-carboxylate] | – | – | 6.1 | 6.7
11 | COC(=O)c1cccc2cc(CNC(=O)c3cnn4c(C)ccnc34)oc12 [EXAMPLE 12, Methyl 2-((7-methylpyrazolo[1,5-a]pyrimidine-3-carboxamido)methyl) benzofuran-7-carboxylate] | – | – | 33 | 39
12 | COC(=O)c1cccc2cc(CNC(=O)c3cnn4cc(Cl)cnc34)oc12 [EXAMPLE 13, Methyl 2-((6-chloropyrazolo[1,5-a]pyrimidine-3-carboxamido)methyl) benzofuran-7-carboxylate] | – | – | 8.7 | 11
13 | COC(=O)c1cccc2cc(Cn3cccc(-c4cnco4)c3=O)oc12 [EXAMPLE 17, Methyl 2-((3-(oxazol-5-yl)-2-oxopyridin-1(2H)-yl)methyl)benzofuran-7-carboxylate] | 48 | 73 | – | –
14 | COC(=O)c1cccc2cc(Cn3ccc4[nH]ncc4c3=O)oc12 [EXAMPLE 19, Methyl 2-({4-oxo-1H,4H,5H-pyrazolo[4,3-c]pyridin-5-yl}methyl)-1-benzofuran-7-carboxylate] | 47 | 95 | – | –
15 | COC(=O)Cc1cccc2cc(CNC(=O)c3cnn4cccnc34)oc12 [EXAMPLE 20, Methyl 2-(2-((pyrazolo[1,5-a]pyrimidine-3-carboxamido)methyl)benzofuran-7-yl)acetate] | 48 | 49 | – | –
16 | COC(=O)c1cccc2c(Cl)c(CN3CCc4ccncc4C3=O)oc12 [EXAMPLE 21, Methyl 3-chloro-2-((1-oxo-3,4-dihydro-2,7-naphthyridin-2(1H)-yl)methyl)benzofuran-7-carboxylate] | 2.9 | 3.1 | – | –
17 | COC(=O)c1cccc2c(Cl)c(CNC(=O)c3cnn4cccnc34)oc12 [EXAMPLE 22, Methyl 3-chloro-2-((pyrazolo[1,5-a]pyrimidine-3-carboxamido)methyl)benzofuran-7-carboxylate] | 0.6 | 0.67 | – | –
18 | COC(=O)c1ccc(F)c2cc(CNC(=O)c3cnn4cccnc34)oc12 [EXAMPLE 23, methyl 4-fluoro-2-((pyrazolo[1,5-a]pyrimidine-3-carboxamido)methyl)-benzofuran-7-carboxylate] | 2 | 1.8 | – | –
19 | COC(=O)c1ccc(C)c2cc(CN3CCc4ccncc4C3=O)oc12 [EXAMPLE 28, Methyl 4-methyl-2-((1-oxo-3,4-dihydro-2,7-naphthyridin-2(1H)-yl)methyl)benzofuran-7-carboxylate] | 3.1 | 3.6 | – | –
20 | COC(=O)c1ccc(C)c2cc(Cn3cnc4ccncc4c3=O)oc12 [EXAMPLE 29, Methyl 4-methyl-2-((4-oxopyrido[4,3-d]pyrimidin-3(4H)-yl)methyl)benzofuran-7-carboxylate] | 3 | 2.9 | – | –

Continued, in another order:

Row | EC50 ([1]; Homo sapiens, THP1-Dual, 20 h) [µM] | EC50 ([2]; Homo sapiens, THP1-Dual, 20 h) [µM] | SMILES | EC50 [1] [µM] | EC50 [2] [µM]
21 | 2.1 | 1.5 | COC(=O)c1cc(C)cc2cc(C(C)NC(=O)c3cnn4cccnc34)oc12 (single isomer, unassigned) [Example 97, Methyl-5-methyl-2-(1-(pyrazolo[1,5-a]pyrimidine-3-carboxamido)ethyl)benzofuran-7-carboxylate] | – | –
22 | 5.7 | 6.3 | COC(=O)c1cccc2cc(CN3CCc4ccncc4C3=O)oc12 [EXAMPLE 5, Methyl 2-((1-oxo-3,4-dihydro-2,7-naphthyridin-2(1H)-yl)methyl)benzofuran-7-carboxylate] | – | –
23 | 5.1 | 3.1 | COC(=O)c1cccc2cc(Cn3cnc4ccncc4c3=O)oc12 [EXAMPLE 6, Methyl 2-((4-oxopyrido[4,3-d]pyrimidin-3(4H)-yl)methyl)benzofuran-7-carboxylate] | – | –
24 | 4.3 | 4.1 | COC(=O)c1cccc2cc(Cn3ccc4ccncc4c3=O)oc12 [EXAMPLE 7, Methyl 2-((1-oxo-2,7-naphthyridin-2(1H)-yl)methyl)benzofuran-7-carboxylate] | – | –
25 | 3.8 | 6 | COC(=O)c1cccc2cc(CNC(=O)c3cncc4cccnc34)oc12 [EXAMPLE 14, Methyl 2-((1,6-naphthyridine-8-carboxamido)methyl)benzofuran-7-carboxylate] | – | –
26 | 44 | 39 | COC(=O)c1cccc2cc(CNC(=O)c3cncnc3)oc12 [EXAMPLE 15, Methyl 2-((pyrimidine-5-carboxamido)methyl)benzofuran-7-carboxylate] | – | –
27 | 6.8 | 9.3 | COC(=O)c1cccc2cc(CNC(=O)c3cncnc3OC)oc12 [EXAMPLE 16, Methyl 2-((4-methoxypyrimidine-5-carboxamido)methyl)benzofuran-7-carboxylate] | – | –
28 | 79 | 97 | COC(=O)c1cccc2cc(Cn3cccc(C#N)c3=O)oc12 [EXAMPLE 18, Methyl 2-((3-cyano-2-oxopyridin-1(2H)-yl)methyl)benzofuran-7-carboxylate] | – | –
29 | 10 | 15 | COC(=O)c1ccc(F)c2cc(Cn3cnc4ccncc4c3=O)oc12 [EXAMPLE 25] | – | –
30 | 0.63 | 0.67 | COC(=O)c1ccc(Cl)c2cc(CNC(=O)c3cnn4cccnc34)oc12 [EXAMPLE 26, Methyl 4-chloro-2-((pyrazolo[1,5-a]pyrimidine-3-carboxamido)methyl)benzofuran-7-carboxylate] | – | –
31 | 27 | 31 | COC(=O)c1ccc(C)c2cc(CN3Cc4ccncc4C3=O)oc12 [EXAMPLE 30, Methyl 4-methyl-2-((3-oxo-1,3-dihydro-2H-pyrrolo[3,4-c]pyridin-2-yl)methyl)benzofuran-7-carboxylate] | – | –
